Laboratory results: patent US20020045242A1, “Culture medium for culturing Lactobacillus clearans, and method for preserving said strain” (priority 1999, published 2002)
Read-outs that look alike come from different tables or passages of the source.

What was measured:
Lactobacillus clearans [1] = assay: Viability of Lactobacillus clearans during lyophilization with preservatives; type: cell-based; conditions: viability class
Procedure: (§1) Here, alfalfa juice and clover juice refer to liquids which are made by adding 10-fold water to alfalfa grass or clover grass to make a juice, these being used as alfalfa juice or clover juice, respectively. The amounts in which the preservatives are added are expressed in terms of the weight ratio of the preservative relative to the weight of the viable cells. […] The viability of Lactobacillus clearans is expressed as a percentage, where 100% is the viable cell count immediately after lyophilization. The viability during lyophilization is indicated as concentric circles when the viability is more than 90%, as two concentric circles to one circle when the rate is 80 to 90%, as one circle when the rate is 60 to 80%, as a square when the rate is 40 to 60%, as a triangle when the rate is 20 to 40%, and as an “x” when the rate is less than 20%.
(§2) Here, the amounts in which the preservatives were added are expressed as the weight ratio of the preservative relative to the viable cell weight. […] The viability of Lactobacillus clearans during lyophilization is indicated as two concentric circles when the viability is more than 90%, as two concentric circles to one circle when the rate is 80 to 90%, as one circle when the rate is 60 to 80%, as a square when the rate is 40 to 60%, as a triangle when the rate is 20 to 40%, and as an “x” when the rate is less than 20%.

Lactobacillus clearans [2] = assay: Viability of Lactobacillus clearans during storage with preservatives
Procedure: as §1, §2

Lactobacillus clearans [3] = assay: Changes in titer of Lactobacillus clearans during storage with preservatives; type: cell-based
Procedure: as §1, §2

Lactobacillus clearans [4] = assay: Effect of substances added during subculture on titer of Lactobacillus clearans; type: cell-based; conditions: added to medium during subculture
From the text: The most important amino acids constituting the bacterial cells or enzymes were studied by type for their effects on Lactobacillus clearans.
We looked for substances capable of such enhancement or potentiation and conducted extensive- study.

[5] = protein-amino acid-based preservative used alone
[6] = Lactobacillus clearans, 3 months
[7] = Lactobacillus clearans, 6 months
[8] = Lactobacillus clearans, 12 months
[9] = protein-amino acid-based preservative
[10] = saccharides and animal-based protein·vitamin·mineral complex preservative used alone
[11] = saccharides and animal-based complex preservative
[12] = protein-amino acid-based preservative, 100% = viable cell count immediately after lyophilization, 3 months
[13] = protein-amino acid-based preservative, 100% = viable cell count immediately after lyophilization, 6 months
[14] = protein-amino acid-based preservative, 100% = viable cell count immediately after lyophilization, 12 months

| Molecule | Results during lyophilization (Lactobacillus clearans [1]; [5]) | Changes over time during storage, Viability (%) 3 months (Lactobacillus clearans [2]; [6]) | Changes over time during storage, Viability (%) 6 months (Lactobacillus clearans [2]; [7]) | Changes over time during storage, Viability (%) 12 months (Lactobacillus clearans [2]; [8]) | Changes over time during storage, Changes in titer (Lactobacillus clearans [3]; [9]) | effect on titer of Lactobacillus clearans (Lactobacillus clearans [4]) | further results |
| --- | --- | --- | --- | --- | --- | --- | --- |
| NCCCC(=O)O | □ (a square when the rate is 40 to 60%) | 65% | 45% | 25% | ± |  |  |
| C[C@H](N)C(=O)O [Alanine] | Δ (a triangle when the rate is 20 to 40%) | 30% | 15% | 5% | − |  |  |
| N=C(N)NCCC[C@H](N)C(=O)O [Arginine] | Δ (a triangle when the rate is 20 to 40%) | 20% | 5% | 2% |  |  | Changes over time during storage, Changes in titer (Lactobacillus clearans [3]): − |
| NC(=O)C[C@H](N)C(=O)O [Asparagine] | □ (a square when the rate is 40 to 60%) | 55% | 30% | 15% | ± |  |  |
| N[C@@H](CS)C(=O)O [Cysteine] | ◯ (one circle when the rate is 60 to 80%) | 65% | 45% | 30% | + | extremely effective |  |
| N[C@@H](CSSC[C@H](N)C(=O)O)C(=O)O [Cystine] | ◯ (one circle when the rate is 60 to 80%) | 70% | 50% | 35% | + | extremely effective |  |
| NCC(=O)O [Glycine] | Δ (a triangle when the rate is 20 to 40%) | 25% | 10% | 2% | − |  |  |
| OC[C@H]1O[C@@H](O[C@H]2[C@H](O)[C@@H](O)C(O)O[C@@H]2CO)[C@H](O)[C@@H](O)[C@H]1O (some centres unmarked) [Lactose] |  | 70% | 50% | 20% |  |  | Results during lyophilization (Lactobacillus clearans [1]; [10]): □ (a square when the rate is 40 to 60%); Changes over time during storage, Changes in titer (Lactobacillus clearans [3]; [11]): ± |
| CC(C)C[C@H](N)C(=O)O [Leucine] | Δ (a triangle when the rate is 20 to 40%) | 25% | 10% | 3% | − |  |  |
| NCCCC[C@H](N)C(=O)O [Lysine] | Δ (a triangle when the rate is 20 to 40%) |  |  |  | ± | extremely effective | Changes over time during storage, Viability (%) 3 months (Lactobacillus clearans [2]; [12]): 30%; Changes over time during storage, Viability (%) 6 months (Lactobacillus clearans [2]; [13]): 15%; Changes over time during storage, Viability (%) 12 months (Lactobacillus clearans [2]; [14]): 5% |
| CSCC[C@H](N)C(=O)O [Methionine] | ◯ (one circle when the rate is 60 to 80%) | 65% | 45% | 30% | + | extremely effective |  |
| N[C@@H](CCC(=O)[O-])C(=O)[O-].[Na+].[Na+] [Sodium glutamate] | □ (a square when the rate is 40 to 60%) |  |  |  | ± |  | Changes over time during storage, Viability (%) 3 months (Lactobacillus clearans [2]; [12]): 60%; Changes over time during storage, Viability (%) 6 months (Lactobacillus clearans [2]; [13]): 40%; Changes over time during storage, Viability (%) 12 months (Lactobacillus clearans [2]; [14]): 20% |
| OC[C@H]1O[C@@](CO)(O[C@H]2O[C@H](CO)[C@@H](O)[C@H](O)[C@H]2O)[C@@H](O)[C@@H]1O [Sucrose] |  | 30% | 15% | 5% |  |  | Results during lyophilization (Lactobacillus clearans [1]; [10]): Δ (a triangle when the rate is 20 to 40%); Changes over time during storage, Changes in titer (Lactobacillus clearans [3]; [11]): − |
| NCCS(=O)(=O)O [Taurine] | ◯ (one circle when the rate is 60 to 80%) | 70% | 50% | 35% | + | extremely effective |  |
| OC[C@H]1O[C@H](O[C@H]2O[C@H](CO)[C@@H](O)[C@H](O)[C@H]2O)[C@H](O)[C@@H](O)[C@@H]1O [Trehalose] |  |  |  |  |  |  | Results during lyophilization (Lactobacillus clearans [1]; [10]): ◯ (one circle when the rate is 60 to 80%); Changes over time during storage, Viability (%) 3 months (Lactobacillus clearans [2]; saccharides and animal-based complex preservative, 100% = viable cell count immediately after lyophilization, 3 months): 75%; Changes over time during storage, Viability (%) 6 months (Lactobacillus clearans [2]; saccharides and animal-based complex preservative, 100% = viable cell count immediately after lyophilization, 6 months): 50%; Changes over time during storage, Viability (%) 12 months (Lactobacillus clearans [2]; saccharides and animal-based complex preservative, 100% = viable cell count immediately after lyophilization, 12 months): 30%; Changes over time during storage, Changes in titer (Lactobacillus clearans [3]; [11]): + |
| N[C@@H](Cc1c[nH]c2ccccc12)C(=O)O [Tryptophan] | Δ (a triangle when the rate is 20 to 40%) | 25% | 10% | 4% | − |  |  |
| O=C1O[C@H]([C@@H](O)CO)C(O)=C1O [Vitamin C] |  |  |  |  |  | effective |  |

| Molecule | Results during lyophilization (Lactobacillus clearans [1]; [5]) | Changes over time during storage, Viability (%) 3 months (Lactobacillus clearans [2]; [6]) | Changes over time during storage, Viability (%) 6 months (Lactobacillus clearans [2]; [7]) | Changes over time during storage, Viability (%) 12 months (Lactobacillus clearans [2]; [8]) | Changes over time during storage, Changes in titer (Lactobacillus clearans [3]; [9]) | effect on titer of Lactobacillus clearans (Lactobacillus clearans [4]) | further results |
| --- | --- | --- | --- | --- | --- | --- | --- |
| N[C@@H](CC(=O)O)C(=O)O [aspartic acid] |  |  |  |  |  | extremely effective |  |
| Nc1nc2ncc(CNc3ccc(C(=O)N[C@@H](CCC(=O)O)C(=O)O)cc3)nc2c(=O)[nH]1 [folic acid] |  |  |  |  |  | effective |  |
| N[C@@H](CCC(=O)O)C(=O)O [glutamic acid] |  |  |  |  |  | extremely effective |  |
| [Mg+2] [magnesium] |  |  |  |  |  | effective |  |
| [Mn+2] [manganese] |  |  |  |  |  | effective |  |
| [Mo] [molybdenum] |  |  |  |  |  | effective |  |
| NC(=O)c1cccnc1 [nicotinamide] |  |  |  |  |  | effective |  |
| O=C(O)[C@@H]1CCCN1 [proline] |  |  |  |  |  | a rapid decrease in titer |  |
| [Zn] [zinc] |  |  |  |  |  | effective |  |
| Gelatin | X (an “x” when the rate is less than 20%) |  |  |  |  |  | Changes over time during storage, Viability (%) 3 months (Lactobacillus clearans [2]): 10%; Changes over time during storage, Viability (%) 6 months (Lactobacillus clearans [2]): 3%; Changes over time during storage, Viability (%) 12 months (Lactobacillus clearans [2]): 0% |
| Potato starch |  |  |  |  |  |  | Changes over time during storage, Viability (%) 3 months (Lactobacillus clearans [2]): 30%; Changes over time during storage, Viability (%) 6 months (Lactobacillus clearans [2]): 20%; Changes over time during storage, Viability (%) 12 months (Lactobacillus clearans [2]): 10% |
| Soluble starch |  |  |  |  |  |  | Changes over time during storage, Viability (%) 3 months (Lactobacillus clearans [2]): 60%; Changes over time during storage, Viability (%) 6 months (Lactobacillus clearans [2]): 40%; Changes over time during storage, Viability (%) 12 months (Lactobacillus clearans [2]): 15% |
| Vitamin B12 |  |  |  |  |  | effective |  |
| Vitamin E |  |  |  |  |  | effective |  |
| Yeast extract |  |  |  |  |  |  | Changes over time during storage, Viability (%) 3 months (Lactobacillus clearans [2]): 50%; Changes over time during storage, Viability (%) 6 months (Lactobacillus clearans [2]): 30%; Changes over time during storage, Viability (%) 12 months (Lactobacillus clearans [2]): 20% |
| calcium pantothenate |  |  |  |  |  | effective |  |
| Ovalbumin: protein-based preservative (protein, UniProt P01012 2-386, looked up) Ovalbumin: GSIGAASMEFCFDVFKELKVHHANENIFYCPIAIMSALAMVYLGAKDSTRTQINKVVRFDKLPGFGDSIEAQCGTSVNVHSSLRDILNQITKPNDVYSFSLASRLYAEERYPILPEYLQCVKELYRGGLEPINFQTAADQARELINSWVESQTNGIIRNVLQPSSVDSQTAMVLVNAIVFKGLWEKAFKDEDTQAMPFRVTEQESKPVQMMYQIGLFRVASMASEKMKILELPFASGTMSMLVLLPDEVSGLEQLESIINFEKLTEWTSSNVMEERKIKVYLPRMKMEEKYNLTSVLMAMGITDVFSSSANLSGISSAESLKISQAVHAAHAEINEAGREVVGSAEAGVDAASVSEEFRADHPFLFCIKHIATNAVLFFGRCVSP | ◯ (one circle when the rate is 60 to 80%) |  |  |  | + |  | Changes over time during storage, Viability (%) 3 months (Lactobacillus clearans [2]): 70%; Changes over time during storage, Viability (%) 6 months (Lactobacillus clearans [2]): 50%; Changes over time during storage, Viability (%) 12 months (Lactobacillus clearans [2]): 30% |
